In patent US12551525B2, “Collagen peptide-based medicament compositions and devices and methods of production and use thereof” (SUSTAIN HOLDINGS, LLC, priority 2017, dated 2026):

Tests used:
[1] = tested on: corneal epithelium in wounded mouse eyes; assay: In vivo healing of mouse corneal epithelium (corneal wound model, fluorescein staining); set-up: species or system mouse (C57BL/6); settings: 25 nM (about 3 mg/kg) in aqueous PBS, applied after 1.5 mm epithelial wound; within 16 hours post-treatment; compared to PBS and EGF controls
Experimental: The FIG. 1s a series of photomicrographs depicting the healing of a wound in the cornea of mouse eye, at time 0 and 16 hours post-wounding, upon treatment with certain compositions of the present invention. Wounds were introduced into the corneas of mice, and the mice treated immediately after wounding with vehicle (PBS), with 100 ng/ml of epidermal growth factor (EGF), or with 25 nM (about 3 mg/kg) of a (Pro-Pro-Gly)7 CMP of the invention (SEQ ID NO:1) (“Cmpd 3”), or of a (Hyp-Pro-Gly)7-SubP CMP-TC of the invention (SEQ ID NO:390) (“Cmpd 10”).
To examine the possible therapeutic effects of CMPs and CMP-TC conjugates of the invention, studies were designed to test certain CMPs and CMP-TC conjugates in an in vivo setting—the healing of the corneal epithelium in wounded mouse eyes. […] Wound size at various time points over 48 hours was examined by fluorescein staining (see Carlson et al., id.), and documented via fluorescent photomicrography, and quantified using Image J software (see Rush, J. S. et al., Investig. Ophthalmol. Visual Sci. 57 (14): 5864-5871 (2016); Rush, J. S. et al., Investig. Ophthalmol. Visual Sci. 55 (8): 4691-4699 (2014)). […]

[2] = triple helix of the peptide chains; Sakakibara et al. 1973; cited from earlier work

| Substance | wound healing in mouse cornea and corneal stroma (reduction in diameter and intensity of fluorescein fluorescence) [1] | melting temperature of a triple helix [2] [°C] |
| --- | --- | --- |
| (Hyp-Pro-Gly)7-SubP [Cmpd 10] | significant acceleration of wound healing | – |
| (Pro-Pro-Gly)7 [Cmpd 3] | significant acceleration of wound healing | – |
| (ProHypGly)10 | – | 58 |
| (ProProGly)10 | – | 24 |
